Where “and” joins values, the source holds several entries; their conditions need not be identical. Equal entries are not always repeated.
Key:
Test in all cases: KINOMEscan competition binding
Settings in all cases: compound 10.0 µM
STK24 (human) = STK24 (human) (UniProt Q9Y6E0)
CDK14 (human) = CDK14 (human) (UniProt O94921)
STK11 (human) = STK11 (human) (UniProt Q15831)
NIM1 (human) = NIM1 (human) (UniProt Q8IY84)
TBK1 (human) = TBK1 (human) (UniProt Q9UHD2)
DSTYK (human) = DSTYK (human) (UniProt Q6XUX3)
MAP3K5 (human) = MAP3K5 (human) (UniProt Q99683)
RIOK1 (human) = RIOK1 (human) (UniProt Q9BRS2)
KDR (human) = KDR (human) (UniProt P35968)
PIK3C2B (human) = PIK3C2B (human) (UniProt O00750)
CSF1R (human) = CSF1R (human) (UniProt P07333)
[1] = molecular target: JAK2 JH1 catalytic (human) (UniProt O60674)
EGFR (human) = EGFR (human) (UniProt P00533)
CDK9 (human) = CDK9 (human) (UniProt P50750)
SGK3 (human) = SGK3 (human) (UniProt Q96BR1)
GSK3B (human) = GSK3B (human) (UniProt P49841)
PDPK1 (human) = PDPK1 (human) (UniProt O15530)
RIPK1 (human) = RIPK1 (human) (UniProt Q13546)
EPHA2 (human) = EPHA2 (human) (UniProt P29317)
STK17A (human) = STK17A (human) (UniProt Q9UEE5)
STK25 (human) = STK25 (human) (UniProt O00506)
LIMK2 (human) = LIMK2 (human) (UniProt P53671)
RPS6KA2 KD1 (human) = RPS6KA2 KD1 (human) (UniProt Q15349)
FLT4 (human) = FLT4 (human) (UniProt P35916)
MAP2K7 (human) = MAP2K7 (human) (UniProt O14733)
TNNI3K (human) = TNNI3K (human) (UniProt Q59H18)
[2] = test system: KIT (human), P10721 [A829P]
LTK (human) = LTK (human) (UniProt P29376)
CLK3 (human) = CLK3 (human) (UniProt P49761)
RPS6KA6 KD1 (human) = RPS6KA6 KD1 (human) (UniProt Q9UK32)
AURKA (human) = AURKA (human) (UniProt O14965)
CHUK (human) = CHUK (human) (UniProt O15111)
STK36 (human) = STK36 (human) (UniProt Q9NRP7)
STK38 (human) = STK38 (human) (UniProt Q15208)
ALK (human) = ALK (human) (UniProt Q9UM73)
ROS1 (human) = ROS1 (human) (UniProt P08922)
MLTK (human) = MLTK (human) (UniProt Q9NYL2)
PLK2 (human) = PLK2 (human) (UniProt Q9NYY3)
IKBKB (human) = IKBKB (human) (UniProt O14920)
MARK3 (human) = MARK3 (human) (UniProt P27448)

Chain of SGK3 (human) (Q96BR1 whole entry, looked up): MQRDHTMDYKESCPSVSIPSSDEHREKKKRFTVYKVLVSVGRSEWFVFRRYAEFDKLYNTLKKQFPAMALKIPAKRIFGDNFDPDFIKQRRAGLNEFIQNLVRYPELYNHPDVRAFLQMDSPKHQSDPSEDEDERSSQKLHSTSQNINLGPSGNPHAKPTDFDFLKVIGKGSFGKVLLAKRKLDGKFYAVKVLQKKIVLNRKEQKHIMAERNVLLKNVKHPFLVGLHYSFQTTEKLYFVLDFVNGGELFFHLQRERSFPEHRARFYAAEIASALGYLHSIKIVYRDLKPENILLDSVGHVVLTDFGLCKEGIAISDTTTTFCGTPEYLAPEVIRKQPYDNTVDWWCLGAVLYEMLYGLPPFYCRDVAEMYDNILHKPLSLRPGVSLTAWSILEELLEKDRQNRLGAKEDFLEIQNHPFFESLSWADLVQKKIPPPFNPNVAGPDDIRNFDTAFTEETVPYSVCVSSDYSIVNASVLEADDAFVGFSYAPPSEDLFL
Chain of CSF1R (human) (P07333 whole entry, looked up): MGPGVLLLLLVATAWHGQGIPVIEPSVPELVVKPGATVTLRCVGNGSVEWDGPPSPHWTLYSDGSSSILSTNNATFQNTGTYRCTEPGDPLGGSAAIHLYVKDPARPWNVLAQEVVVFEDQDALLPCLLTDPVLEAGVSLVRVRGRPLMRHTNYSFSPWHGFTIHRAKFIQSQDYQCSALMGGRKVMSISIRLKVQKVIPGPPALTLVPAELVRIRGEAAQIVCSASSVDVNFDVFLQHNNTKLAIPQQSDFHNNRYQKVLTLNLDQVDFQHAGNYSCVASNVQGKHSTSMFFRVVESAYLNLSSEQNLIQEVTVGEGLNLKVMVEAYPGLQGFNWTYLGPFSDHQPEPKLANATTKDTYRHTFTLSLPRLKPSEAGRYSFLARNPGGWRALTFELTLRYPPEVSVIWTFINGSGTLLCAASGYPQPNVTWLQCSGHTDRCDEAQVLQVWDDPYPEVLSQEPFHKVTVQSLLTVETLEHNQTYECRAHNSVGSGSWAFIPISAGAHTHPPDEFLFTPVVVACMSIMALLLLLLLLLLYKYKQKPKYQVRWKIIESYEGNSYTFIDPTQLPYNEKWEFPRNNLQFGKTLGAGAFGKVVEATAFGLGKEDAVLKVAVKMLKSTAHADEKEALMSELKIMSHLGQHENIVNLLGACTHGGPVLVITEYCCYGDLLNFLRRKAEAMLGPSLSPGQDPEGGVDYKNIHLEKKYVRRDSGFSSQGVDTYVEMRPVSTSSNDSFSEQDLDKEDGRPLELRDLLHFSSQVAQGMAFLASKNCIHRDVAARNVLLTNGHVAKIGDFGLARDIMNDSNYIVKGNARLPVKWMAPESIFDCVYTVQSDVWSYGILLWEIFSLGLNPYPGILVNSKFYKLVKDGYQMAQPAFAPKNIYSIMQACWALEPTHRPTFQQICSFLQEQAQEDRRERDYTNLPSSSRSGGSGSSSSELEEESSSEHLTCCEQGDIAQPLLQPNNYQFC
Chain of RIOK1 (human) (Q9BRS2 whole entry, looked up): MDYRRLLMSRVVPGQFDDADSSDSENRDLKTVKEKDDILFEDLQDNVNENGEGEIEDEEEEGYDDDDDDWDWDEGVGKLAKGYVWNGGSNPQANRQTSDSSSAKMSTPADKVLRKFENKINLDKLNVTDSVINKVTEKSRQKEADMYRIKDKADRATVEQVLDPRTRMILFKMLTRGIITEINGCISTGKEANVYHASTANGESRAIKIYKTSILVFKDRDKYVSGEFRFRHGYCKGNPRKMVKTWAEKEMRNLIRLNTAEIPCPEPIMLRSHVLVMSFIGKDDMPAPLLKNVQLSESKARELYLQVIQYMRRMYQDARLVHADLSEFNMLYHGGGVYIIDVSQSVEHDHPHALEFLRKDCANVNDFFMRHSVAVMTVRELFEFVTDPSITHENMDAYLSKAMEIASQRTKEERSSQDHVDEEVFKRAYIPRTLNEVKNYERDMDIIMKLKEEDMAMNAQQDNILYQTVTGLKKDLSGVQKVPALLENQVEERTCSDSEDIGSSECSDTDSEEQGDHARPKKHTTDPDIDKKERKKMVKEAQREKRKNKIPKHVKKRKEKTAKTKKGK
Chain of STK17A (human) (Q9UEE5 whole entry, looked up): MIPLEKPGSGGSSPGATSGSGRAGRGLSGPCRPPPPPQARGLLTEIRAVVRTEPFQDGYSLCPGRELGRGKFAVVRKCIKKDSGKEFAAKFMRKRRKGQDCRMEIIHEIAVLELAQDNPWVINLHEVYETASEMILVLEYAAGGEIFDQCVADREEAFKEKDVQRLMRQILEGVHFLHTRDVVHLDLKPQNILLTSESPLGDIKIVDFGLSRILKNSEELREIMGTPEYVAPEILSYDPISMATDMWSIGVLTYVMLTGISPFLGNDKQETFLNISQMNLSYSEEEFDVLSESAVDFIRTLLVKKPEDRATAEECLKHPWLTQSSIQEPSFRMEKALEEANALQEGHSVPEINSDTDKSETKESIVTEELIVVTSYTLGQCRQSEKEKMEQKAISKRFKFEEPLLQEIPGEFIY
Chain of STK36 (human) (Q9NRP7 whole entry, looked up): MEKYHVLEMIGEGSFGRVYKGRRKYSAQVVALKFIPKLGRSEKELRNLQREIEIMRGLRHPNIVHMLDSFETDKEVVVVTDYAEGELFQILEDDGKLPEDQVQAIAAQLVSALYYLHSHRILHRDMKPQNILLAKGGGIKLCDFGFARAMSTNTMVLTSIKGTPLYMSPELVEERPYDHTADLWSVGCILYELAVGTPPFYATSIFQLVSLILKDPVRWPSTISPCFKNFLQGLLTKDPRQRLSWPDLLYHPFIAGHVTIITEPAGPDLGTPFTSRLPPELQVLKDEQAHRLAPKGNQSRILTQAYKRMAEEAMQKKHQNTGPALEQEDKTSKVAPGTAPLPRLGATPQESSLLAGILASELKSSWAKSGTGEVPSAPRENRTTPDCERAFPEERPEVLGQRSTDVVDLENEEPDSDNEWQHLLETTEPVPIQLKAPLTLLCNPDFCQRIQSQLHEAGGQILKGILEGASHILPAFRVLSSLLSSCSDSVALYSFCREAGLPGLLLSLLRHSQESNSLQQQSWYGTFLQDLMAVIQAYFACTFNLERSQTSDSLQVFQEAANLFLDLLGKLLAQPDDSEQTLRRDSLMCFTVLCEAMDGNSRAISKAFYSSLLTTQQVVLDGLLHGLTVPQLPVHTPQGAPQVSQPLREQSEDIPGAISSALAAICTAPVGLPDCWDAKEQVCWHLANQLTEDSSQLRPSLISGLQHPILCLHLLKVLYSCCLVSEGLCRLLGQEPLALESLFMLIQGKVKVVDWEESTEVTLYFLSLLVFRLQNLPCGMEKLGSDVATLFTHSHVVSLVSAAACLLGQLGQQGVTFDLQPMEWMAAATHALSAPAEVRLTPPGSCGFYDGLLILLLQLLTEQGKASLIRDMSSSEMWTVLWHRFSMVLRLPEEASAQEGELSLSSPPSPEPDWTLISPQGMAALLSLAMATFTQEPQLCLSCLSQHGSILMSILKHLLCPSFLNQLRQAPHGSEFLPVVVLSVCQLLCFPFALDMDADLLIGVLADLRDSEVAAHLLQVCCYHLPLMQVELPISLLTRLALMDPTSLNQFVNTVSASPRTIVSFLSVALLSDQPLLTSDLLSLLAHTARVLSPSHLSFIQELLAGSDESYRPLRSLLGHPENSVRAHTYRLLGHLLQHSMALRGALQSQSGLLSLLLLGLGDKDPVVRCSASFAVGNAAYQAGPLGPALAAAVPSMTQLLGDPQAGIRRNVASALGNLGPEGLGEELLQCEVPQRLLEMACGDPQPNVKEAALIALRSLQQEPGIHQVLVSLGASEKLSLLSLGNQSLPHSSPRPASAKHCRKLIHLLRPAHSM
Chain of STK24 (human) (Q9Y6E0 whole entry, looked up): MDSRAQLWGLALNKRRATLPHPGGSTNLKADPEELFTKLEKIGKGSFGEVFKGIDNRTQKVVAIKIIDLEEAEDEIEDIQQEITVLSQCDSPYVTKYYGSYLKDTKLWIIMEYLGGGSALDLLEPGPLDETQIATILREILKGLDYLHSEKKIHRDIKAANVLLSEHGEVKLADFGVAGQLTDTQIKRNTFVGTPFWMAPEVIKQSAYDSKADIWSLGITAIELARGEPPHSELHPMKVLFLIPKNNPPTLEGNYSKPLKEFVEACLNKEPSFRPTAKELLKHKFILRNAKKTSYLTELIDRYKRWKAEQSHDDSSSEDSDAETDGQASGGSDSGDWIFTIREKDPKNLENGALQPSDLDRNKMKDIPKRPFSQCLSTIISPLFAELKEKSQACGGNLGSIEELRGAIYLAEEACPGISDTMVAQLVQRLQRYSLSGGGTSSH
Chain of PLK2 (human) (Q9NYY3 whole entry, looked up): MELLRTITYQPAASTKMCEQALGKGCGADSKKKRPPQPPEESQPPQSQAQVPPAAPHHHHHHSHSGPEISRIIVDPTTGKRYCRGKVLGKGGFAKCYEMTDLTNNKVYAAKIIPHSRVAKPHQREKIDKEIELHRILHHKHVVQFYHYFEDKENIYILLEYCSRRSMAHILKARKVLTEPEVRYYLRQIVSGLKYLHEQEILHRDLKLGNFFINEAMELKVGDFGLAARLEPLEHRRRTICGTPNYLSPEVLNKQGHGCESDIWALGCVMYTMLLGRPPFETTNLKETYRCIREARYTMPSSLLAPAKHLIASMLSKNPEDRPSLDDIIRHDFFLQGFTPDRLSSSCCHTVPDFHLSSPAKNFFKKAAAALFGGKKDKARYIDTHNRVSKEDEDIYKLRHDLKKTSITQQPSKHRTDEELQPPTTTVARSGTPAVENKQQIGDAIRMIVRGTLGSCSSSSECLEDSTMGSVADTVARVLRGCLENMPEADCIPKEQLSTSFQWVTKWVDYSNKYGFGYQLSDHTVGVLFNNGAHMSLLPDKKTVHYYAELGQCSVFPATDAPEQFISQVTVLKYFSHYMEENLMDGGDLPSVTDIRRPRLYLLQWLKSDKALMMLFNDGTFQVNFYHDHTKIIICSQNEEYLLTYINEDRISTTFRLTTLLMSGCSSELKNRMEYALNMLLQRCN

`COc1cc2ncnc(Nc3cccc(Cl)c3)c2cc1OC` was tested, and the kinase still bound, per cent of control (STK24 (human)) was 87%, the kinase still bound, per cent of control (CDK14 (human)) was 88% and the kinase still bound, per cent of control (STK11 (human)) was 86%. The kinase still bound, per cent of control (NIM1 (human)) was 77%, the kinase still bound, per cent of control (TBK1 (human)) was 45% and the kinase still bound, per cent of control (DSTYK (human)) was 43%. It also gave a kinase still bound, per cent of control (MAP3K5 (human)) of 74%, a kinase still bound, per cent of control (RIOK1 (human)) of 65% and a kinase still bound, per cent of control (KDR (human)) of 31%. For the same molecule, the kinase still bound, per cent of control (PIK3C2B (human)) was 7.6%, the kinase still bound, per cent of control (CSF1R (human)) was 72% and 91% and the kinase still bound, per cent of control [1] was 46%. For the same molecule, the kinase still bound, per cent of control (EGFR (human)) was 0.05%, the kinase still bound, per cent of control (CDK9 (human)) was 100% and the kinase still bound, per cent of control (SGK3 (human)) was 65% and 84%. The kinase still bound, per cent of control (GSK3B (human)) was 90%, the kinase still bound, per cent of control (PDPK1 (human)) was 80% and the kinase still bound, per cent of control (RIPK1 (human)) was 100%. It also gave a kinase still bound, per cent of control (EPHA2 (human)) of 62%, a kinase still bound, per cent of control (STK17A (human)) of 19% and a kinase still bound, per cent of control (STK25 (human)) of 77%. It also gave a kinase still bound, per cent of control (LIMK2 (human)) of 100%, a kinase still bound, per cent of control (RPS6KA2 KD1 (human)) of 85% and a kinase still bound, per cent of control (FLT4 (human)) of 79%. It also gave a kinase still bound, per cent of control (MAP2K7 (human)) of 73%, a kinase still bound, per cent of control (TNNI3K (human)) of 38% and a kinase still bound, per cent of control [2] of 27%. The kinase still bound, per cent of control (LTK (human)) was 48%, the kinase still bound, per cent of control (CLK3 (human)) was 100% and the kinase still bound, per cent of control (RPS6KA6 KD1 (human)) was 46%. For the same molecule, the kinase still bound, per cent of control (AURKA (human)) was 43%, the kinase still bound, per cent of control (CHUK (human)) was 72% and the kinase still bound, per cent of control (STK36 (human)) was 54%. The kinase still bound, per cent of control (STK38 (human)) was 61%, the kinase still bound, per cent of control (ALK (human)) was 25% and the kinase still bound, per cent of control (ROS1 (human)) was 61%. The kinase still bound, per cent of control (MLTK (human)) was 94%, the kinase still bound, per cent of control (PLK2 (human)) was 44% and the kinase still bound, per cent of control (IKBKB (human)) was 66%. The kinase still bound, per cent of control (MARK3 (human)) was 100%.
Work on `CC1=C(C(=O)Nc2cc3cn[nH]c3cc2F)C(c2ccc(C(F)(F)F)cc2)CC(=O)N1` (stereo not given) yielded a kinase still bound, per cent of control (STK24 (human)) of 52%, a kinase still bound, per cent of control (CDK14 (human)) of 89% and a kinase still bound, per cent of control (STK11 (human)) of 100%. For the same molecule, the kinase still bound, per cent of control (NIM1 (human)) was 86%, the kinase still bound, per cent of control (TBK1 (human)) was 82% and the kinase still bound, per cent of control (DSTYK (human)) was 69%. The kinase still bound, per cent of control (MAP3K5 (human)) was 100%, the kinase still bound, per cent of control (RIOK1 (human)) was 100% and the kinase still bound, per cent of control (KDR (human)) was 88%. The kinase still bound, per cent of control (PIK3C2B (human)) was 100%, the kinase still bound, per cent of control (CSF1R (human)) was 68% and the kinase still bound, per cent of control [1] was 12%. For the same molecule, the kinase still bound, per cent of control (EGFR (human)) was 40%, the kinase still bound, per cent of control (CDK9 (human)) was 96% and the kinase still bound, per cent of control (SGK3 (human)) was 100%. It also gave a kinase still bound, per cent of control (GSK3B (human)) of 89%, a kinase still bound, per cent of control (PDPK1 (human)) of 100% and a kinase still bound, per cent of control (RIPK1 (human)) of 84%. It also gave a kinase still bound, per cent of control (EPHA2 (human)) of 84%, a kinase still bound, per cent of control (STK17A (human)) of 95% and a kinase still bound, per cent of control (STK25 (human)) of 64%. It also gave a kinase still bound, per cent of control (LIMK2 (human)) of 89%, a kinase still bound, per cent of control (RPS6KA2 KD1 (human)) of 95% and a kinase still bound, per cent of control (FLT4 (human)) of 94%. It also gave a kinase still bound, per cent of control (MAP2K7 (human)) of 80%, a kinase still bound, per cent of control (TNNI3K (human)) of 78% and a kinase still bound, per cent of control [2] of 58%. For the same molecule, the kinase still bound, per cent of control (LTK (human)) was 100%, the kinase still bound, per cent of control (CLK3 (human)) was 65% and the kinase still bound, per cent of control (RPS6KA6 KD1 (human)) was 42%. It also gave a kinase still bound, per cent of control (AURKA (human)) of 46%, a kinase still bound, per cent of control (CHUK (human)) of 100% and a kinase still bound, per cent of control (STK36 (human)) of 96%. It also gave a kinase still bound, per cent of control (STK38 (human)) of 19%, a kinase still bound, per cent of control (ALK (human)) of 77% and a kinase still bound, per cent of control (ROS1 (human)) of 100%. It also gave a kinase still bound, per cent of control (MLTK (human)) of 92%, a kinase still bound, per cent of control (PLK2 (human)) of 86% and a kinase still bound, per cent of control (IKBKB (human)) of 86%. It also gave a kinase still bound, per cent of control (MARK3 (human)) of 100%.
